Data set [1] has as its target Sodium-dependent noradrenaline transporter (Homo sapiens, UniProt P23975). Put plainly: biochemical.
Data set [2] deals with Sodium-dependent serotonin transporter (Homo sapiens, UniProt P31645). Briefly: biochemical.
Data set [3] has as its target Voltage-gated inwardly rectifying potassium channel KCNH2 (Homo sapiens, UniProt Q12809). Briefly: Displacement of [3H]dofetilide from human ERG.
Data set [4] addresses Sodium-dependent dopamine transporter (Homo sapiens, UniProt Q01959). Briefly: biochemical.
Data set [5] in a line: Half life in human liver microsomes. Type of data set: ADME, Microsome.
Data set [6] can be described thus: Inhibition of tetrodotoxin-sensitive sodium channel.

A value given as a limit tells only on which side of the number the result lay.

Voltage-gated inwardly rectifying potassium channel KCNH2, sequence (Q12809 whole entry): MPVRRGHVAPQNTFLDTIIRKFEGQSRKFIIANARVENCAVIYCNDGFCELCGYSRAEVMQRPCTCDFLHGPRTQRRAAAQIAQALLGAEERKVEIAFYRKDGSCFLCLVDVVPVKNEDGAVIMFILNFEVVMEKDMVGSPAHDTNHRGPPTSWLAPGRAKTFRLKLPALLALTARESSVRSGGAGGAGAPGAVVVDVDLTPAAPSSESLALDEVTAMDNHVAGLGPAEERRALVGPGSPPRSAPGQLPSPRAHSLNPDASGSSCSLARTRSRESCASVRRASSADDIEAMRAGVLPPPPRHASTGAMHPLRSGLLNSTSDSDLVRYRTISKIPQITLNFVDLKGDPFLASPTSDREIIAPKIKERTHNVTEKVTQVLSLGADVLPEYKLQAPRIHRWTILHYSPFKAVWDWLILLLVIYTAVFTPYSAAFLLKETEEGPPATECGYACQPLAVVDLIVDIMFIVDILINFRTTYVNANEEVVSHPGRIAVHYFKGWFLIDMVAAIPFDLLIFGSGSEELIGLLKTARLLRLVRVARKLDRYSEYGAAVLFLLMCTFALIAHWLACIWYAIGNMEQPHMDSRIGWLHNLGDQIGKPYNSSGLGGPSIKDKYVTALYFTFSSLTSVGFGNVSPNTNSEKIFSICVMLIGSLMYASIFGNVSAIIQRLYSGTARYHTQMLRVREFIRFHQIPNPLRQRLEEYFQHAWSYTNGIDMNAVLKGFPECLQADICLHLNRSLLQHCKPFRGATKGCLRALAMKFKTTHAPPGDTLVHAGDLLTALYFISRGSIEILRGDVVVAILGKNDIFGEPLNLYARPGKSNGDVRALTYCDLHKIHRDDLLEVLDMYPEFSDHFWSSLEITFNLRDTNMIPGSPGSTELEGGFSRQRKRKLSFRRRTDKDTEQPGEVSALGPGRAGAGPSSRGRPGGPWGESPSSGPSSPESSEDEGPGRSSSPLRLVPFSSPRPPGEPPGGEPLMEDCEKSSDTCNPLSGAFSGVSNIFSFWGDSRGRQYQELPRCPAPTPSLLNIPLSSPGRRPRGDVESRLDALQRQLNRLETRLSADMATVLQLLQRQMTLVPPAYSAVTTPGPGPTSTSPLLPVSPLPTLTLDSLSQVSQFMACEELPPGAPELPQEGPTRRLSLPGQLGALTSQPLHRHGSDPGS
Sodium-dependent serotonin transporter, sequence (P31645 whole entry): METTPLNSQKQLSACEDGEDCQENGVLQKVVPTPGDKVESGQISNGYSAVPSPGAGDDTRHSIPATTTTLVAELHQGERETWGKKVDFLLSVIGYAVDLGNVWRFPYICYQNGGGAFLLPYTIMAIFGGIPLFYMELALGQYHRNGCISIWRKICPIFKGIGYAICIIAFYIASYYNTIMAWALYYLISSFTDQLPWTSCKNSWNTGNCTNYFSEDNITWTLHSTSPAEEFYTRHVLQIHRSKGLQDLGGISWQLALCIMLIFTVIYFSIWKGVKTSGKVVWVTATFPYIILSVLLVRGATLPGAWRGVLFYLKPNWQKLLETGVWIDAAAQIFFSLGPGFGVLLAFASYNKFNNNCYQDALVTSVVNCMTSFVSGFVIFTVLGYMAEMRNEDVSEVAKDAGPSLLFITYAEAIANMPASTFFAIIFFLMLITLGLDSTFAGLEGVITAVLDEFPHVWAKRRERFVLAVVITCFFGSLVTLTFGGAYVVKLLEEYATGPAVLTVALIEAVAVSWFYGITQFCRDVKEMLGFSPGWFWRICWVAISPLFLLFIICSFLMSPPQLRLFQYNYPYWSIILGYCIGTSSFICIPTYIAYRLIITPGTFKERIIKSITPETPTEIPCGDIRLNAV
Sodium-dependent noradrenaline transporter, sequence (P23975 whole entry): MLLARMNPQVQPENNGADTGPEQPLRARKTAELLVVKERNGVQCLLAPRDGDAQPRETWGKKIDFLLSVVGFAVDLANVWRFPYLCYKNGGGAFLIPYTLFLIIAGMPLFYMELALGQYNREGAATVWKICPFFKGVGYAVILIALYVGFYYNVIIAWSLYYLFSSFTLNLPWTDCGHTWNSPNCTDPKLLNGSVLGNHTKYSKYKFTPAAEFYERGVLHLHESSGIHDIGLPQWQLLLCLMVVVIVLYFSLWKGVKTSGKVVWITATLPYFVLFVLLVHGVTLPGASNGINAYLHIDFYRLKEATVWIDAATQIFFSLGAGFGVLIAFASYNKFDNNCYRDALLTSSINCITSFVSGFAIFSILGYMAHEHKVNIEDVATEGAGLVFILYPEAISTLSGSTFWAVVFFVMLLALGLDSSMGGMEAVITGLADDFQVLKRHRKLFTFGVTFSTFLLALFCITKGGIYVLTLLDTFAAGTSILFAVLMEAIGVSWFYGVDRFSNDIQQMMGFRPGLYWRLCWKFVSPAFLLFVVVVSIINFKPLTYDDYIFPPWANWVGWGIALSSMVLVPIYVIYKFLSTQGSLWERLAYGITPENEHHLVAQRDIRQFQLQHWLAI
Sodium-dependent dopamine transporter, sequence (Q01959 whole entry): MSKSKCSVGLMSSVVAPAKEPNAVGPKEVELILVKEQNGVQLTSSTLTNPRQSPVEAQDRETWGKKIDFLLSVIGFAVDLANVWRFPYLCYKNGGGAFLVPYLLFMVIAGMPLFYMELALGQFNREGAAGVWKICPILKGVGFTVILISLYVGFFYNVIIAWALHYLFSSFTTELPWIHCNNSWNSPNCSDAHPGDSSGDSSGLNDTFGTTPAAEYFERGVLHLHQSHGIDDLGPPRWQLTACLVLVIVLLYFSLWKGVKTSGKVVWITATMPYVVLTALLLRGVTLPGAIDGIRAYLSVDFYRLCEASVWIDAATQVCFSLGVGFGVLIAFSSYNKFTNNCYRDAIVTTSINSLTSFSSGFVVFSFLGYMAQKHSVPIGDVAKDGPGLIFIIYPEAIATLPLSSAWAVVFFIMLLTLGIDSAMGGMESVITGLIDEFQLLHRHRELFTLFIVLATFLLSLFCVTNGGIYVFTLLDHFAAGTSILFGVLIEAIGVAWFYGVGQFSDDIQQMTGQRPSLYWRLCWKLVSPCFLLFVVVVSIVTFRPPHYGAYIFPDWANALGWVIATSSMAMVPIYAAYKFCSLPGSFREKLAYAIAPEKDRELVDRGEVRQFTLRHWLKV

Regarding `c1ccc(C(Cc2cccc3c2OCC3)N2CCNCC2)cc1` (stereo unspecified), the Ki in data set [1] is 0.34 µM; in data set [2] it was 0.008 µM; in data set [4] it was more than 3.16 µM. Moreover, the IC50 in data set [3] was found to be 21.4 µM.
For the compound `CC(C)CN(C(=O)c1cccc(Cl)c1Cl)[C@H]1CCNC1`, the half-life in data set [5] is more than 2 h. Half-maximal inhibition in data set [6] (IC50) required 8.55 µM.

For orientation: Ki means a measure of affinity in units of concentration, obtained from inhibition or displacement. As usually defined, the IC50 is the midpoint of a concentration-inhibition curve. Usually half-life stands for the time in which the quantity being followed falls by half.

For the origin of these results see ChEMBL document CHEMBL1155538 (Bioorg Med Chem Lett, 2010).
